Results reported in patent US20120190648A1, “FLUORINATED CYCLOPROPANE ANALOGS OF GLUTAMIC ACID” (priority 2009, published 2012).
Like-named read-outs stand apart in the source and are kept apart here.

Target: mGlu4 receptor (Rattus norvegicus, UniProt P31423)
Assay: mGlu4 receptor test at different doses (1 nM to 1 mM) to determine EC50
Assay type: cell-based
Protocol: The compounds according to the invention have been tested on the mGlu4 receptor at different doses (between 1 nM and 1 mM) in order to determine their EC50 value. This test has been carried out according to the protocol described in: C. Selvam, C. Goudet, N. Oueslati, J.-P. Pin, F. Acher J. Med. Chem. 2007, 50, 4656-4664.

mGlu4 receptor, sequence (P31423 33-912): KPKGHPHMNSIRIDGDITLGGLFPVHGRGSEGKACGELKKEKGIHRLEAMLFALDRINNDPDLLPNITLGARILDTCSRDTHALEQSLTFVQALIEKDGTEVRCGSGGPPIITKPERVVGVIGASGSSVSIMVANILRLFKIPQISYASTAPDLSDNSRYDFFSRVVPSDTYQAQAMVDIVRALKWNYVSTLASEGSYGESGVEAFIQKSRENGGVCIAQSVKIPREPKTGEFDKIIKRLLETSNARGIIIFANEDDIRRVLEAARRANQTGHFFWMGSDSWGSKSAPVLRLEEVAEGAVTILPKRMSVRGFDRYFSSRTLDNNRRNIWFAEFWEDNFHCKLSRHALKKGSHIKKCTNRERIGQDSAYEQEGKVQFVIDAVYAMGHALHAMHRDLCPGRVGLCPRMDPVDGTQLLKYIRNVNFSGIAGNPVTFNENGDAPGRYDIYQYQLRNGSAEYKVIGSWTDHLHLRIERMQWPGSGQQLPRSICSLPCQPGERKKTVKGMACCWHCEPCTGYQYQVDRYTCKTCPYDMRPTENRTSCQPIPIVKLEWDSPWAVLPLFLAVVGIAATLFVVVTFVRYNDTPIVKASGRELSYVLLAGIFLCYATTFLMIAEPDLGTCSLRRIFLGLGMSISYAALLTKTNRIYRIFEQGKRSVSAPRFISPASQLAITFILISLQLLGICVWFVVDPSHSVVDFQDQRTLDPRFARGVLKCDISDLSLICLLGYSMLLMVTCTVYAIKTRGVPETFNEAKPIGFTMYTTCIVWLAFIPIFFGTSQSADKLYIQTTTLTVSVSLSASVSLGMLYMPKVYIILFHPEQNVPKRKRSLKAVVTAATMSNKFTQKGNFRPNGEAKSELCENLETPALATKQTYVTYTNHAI

EC50 (mGlu4 receptor, doses between 1 nM and 1 mM, protocol of Selvam et al. J. Med. Chem. 2007, 50, 4656-4664, read-out: EC50) [µM]	SMILES	EC50 [µM]
–	N[C@]1(C(=O)O)C[C@@]1(F)C(O)P(=O)(O)O (mixture of isomers) [cis-I-3]	27.4
–	NC1(C(=O)O)CC1(F)CP(=O)(O)O (racemic) [cis-I-4]	0.34
85.6	NC1(C(=O)O)CC1(F)CS(=O)(=O)O (racemic) [cis-I-6]	–
